From ChEMBL document CHEMBL1147300, “Plant antiviral agents, VI. Isolation of antiviral phenolic glucosides from Populus cultivar Beaupre by droplet counter-current chromatography” (1989) come the findings set out here.

Active and inactive are the calls of the source. No cut-off for these calls is given here.

In experiment [1] the test system is Measles morbillivirus. Put plainly: Antiviral activity against Measles virus infected in african green monkey Vero cells assessed as ratio of viral titer in absence to presence of compound at 500 ug/ml by 50% endpoint titration technique. The experiment is classed as functional, organism-based.
The subject of experiment [2] is Coxsackievirus. As to the kind of experiment: Antiviral activity against Coxsackievirus infected in african green monkey Vero cells assessed as ratio of viral titer in absence to presence of compound at 5 ug/ml by 50% endpoint titration technique. In kind it is functional.
Experiment [3] relates to Semliki Forest virus. Put plainly: Antiviral activity against Semliki forest virus infected in african green monkey Vero cells assessed as ratio of viral titer in absence to presence of compound at 500 ug/ml by 50% endpoint titration technique. The experiment is classed as functional, organism-based.
For experiment [4], the system named is Enterovirus C. As to the kind of experiment: Antiviral activity against Poliovirus infected in african green monkey Vero cells assessed as ratio of viral titer in absence to presence of compound at 5 ug/ml by 50% endpoint titration technique. In kind it is functional.
Experiment [5] deals with Human alphaherpesvirus 1. As to the kind of experiment: Antiviral activity against Herpes simplex virus type 1 infected in african green monkey Vero cells assessed as ratio of viral titer in absence to presence of compound at 500 ug/ml by 50% endpoint titration technique. In kind it is functional, organism-based.
The subject of experiment [6] is Microsporum canis. Put plainly: Antifungal activity against Microsporum canis at 500 ug/ml. The experiment is classed as functional, organism-based.
Experiment [7] deals with Trichophyton mentagrophytes. Put plainly: Antifungal activity against Trichophyton mentagrophytes at 500 ug/ml. In kind it is functional, organism-based.
The test system of experiment [8] is Aspergillus niger. Put plainly: Antifungal activity against Aspergillus niger at 500 ug/ml. The experiment is classed as functional, organism-based.
Experiment [9] concerns Enterovirus C. As to the kind of experiment: Antiviral activity against Poliovirus infected in african green monkey Vero cells assessed as ratio of viral titer in absence to presence of compound at 25 ug/ml by 50% endpoint titration technique. The experiment is classed as functional.
Experiment [10] deals with Trichophyton rubrum. Put plainly: Antifungal activity against Trichophyton rubrum at 500 ug/ml. In kind it is functional, organism-based.
Experiment [11] concerns Coxsackievirus. As to the kind of experiment: Antiviral activity against Coxsackievirus infected in african green monkey Vero cells assessed as ratio of viral titer in absence to presence of compound at 500 ug/ml by 50% endpoint titration technique. In kind it is functional, organism-based.
For experiment [12], the system named is Semliki Forest virus. Put plainly: Antiviral activity against Semliki forest virus infected in african green monkey Vero cells assessed as ratio of viral titer in absence to presence of compound at 50 ug/ml by 50% endpoint titration technique. The experiment is classed as functional.

`COc1c(-c2ccc(O)c(O)c2)oc2cc(O)cc(O)c2c1=O` [3-O-METHYLQUERCETIN]: the outcome in experiment [1], in experiment [3] and in experiment [5] was inactive. For the same molecule, the results for the Ratio in experiment [2] and in [4] were 10000000 and 100000000, respectively.
In the case of `OCc1ccccc1O[C@@H]1O[C@H](CO)[C@@H](O)[C@H](O)[C@H]1O` [SALICIN], the outcome in experiment [1], in experiment [6], in [7], in experiment [8], in [3] and in experiment [10] was inactive. The result in experiment [5] and in [11] was inactive. The Ratio in experiment [9] was found to be 1000.
With `O=C(OCc1cc(O)ccc1O[C@@H]1O[C@H](CO)[C@@H](O)[C@H](O)[C@H]1O)c1ccccc1` [SALIREPOSIDE], the result in experiment [1], in experiment [6], in experiment [7], in experiment [8], in experiment [10] and in experiment [5] was inactive. The outcome in [11] was inactive. For the same molecule, the Ratio in experiment [9] and in experiment [12] was 10000 in each case.
